Data as given in patent US20230201383A1, “PSMA TARGETING UREA-BASED LIGANDS FOR PROSTATE CANCER RADIOTHERAPY AND IMAGING” (Rigshospitalet, priority 2020, published 2023).
Entries after “also recorded” stand apart in the source; their conditions may differ. Counter-ions that a name gives are not always drawn.

What was measured:
[1] = system: LNCaP-tumor-bearing athymic nude mice; test: Small-animal PET imaging: tumor uptake and pharmacokinetic profile; assay type: in vivo; conditions: for Binding profile and biodistribution/pharmacokinetics compared with PSMA-617: direct head-to-head comparison with PSMA-617
Description: For the experimental tumor models 1×10^7 cells of LNCaP (in 50% Matrigel; Becton Dickinson) were subcutaneously inoculated into the right flank of 7- to 8-week-old male BALB/c nu/nu mice (Janvier). For imaging studies, mice were anesthetized (2% isoflurane) and 0.5 nmol of the ^68Ga-labeled compound in 0.9% NaCl (pH 7) were injected into the tail vein. PET imaging was performed with μPET/MRI scanner (BioSpec 3T, Bruker) with a dynamic scan for 60 min. The images were iteratively reconstructed (MLEM 0.5 algorithm, 12 iterations) and were converted to SUV images. Quantification was done using a ROI (region of interest) technique and data in expressed in time activity curves as SUVbody weight. All animal experiments complied with the current laws of the Federal Republic of Germany.
FIGS. 2 to 7 show the pharmacokinetic study with small-animal PET imaging. Time activity curves for non-target organs and tumor after injection of 0.5 nmol ^68Ga-labeled compounds in LNCaP-tumor-bearing athymic nude mice (right trunk) up to 60 min p.i. SUV=standardized uptake value.

PSMA(+) LNCaP cells = test: Internalisation and cell surface binding of 68Ga-labeled compounds in LNCaP cells; assay type: cell-based, human
Description: Compounds Ii, Ij, Ik, Il, Im and In was provided using the same method as disclosed in Example 3 and in vitro test of the binding affinity and internalisation of the compounds were examined using the method as described in Benesova et al, 2016^9. The iodine isotope used was ^127I.
For internalisation determinations, a day before the experiment, PSMA(+) LNCaP cells were seeded in a poly-L-lysine coated 24-well plate (10^5 cells per well) and maintained at 37° C. in an atmosphere of 5% CO2 under supplemented RMPI medium (10% Fetal Calf Serum, 1% sodium pyruvate, 1% FIS). Cells were incubated with 250 μL of radiolabelled compound diluted in RPMI medium (final concentration of [^68Ga]-peptide: 30 nM) and 500 μM of PMPA (2-phosphonomethyl-pentanedioic acid) for the blocked series, for 45 min at 37° C. Cellular uptake was interrupted by washing the cells with ice-cold PBS (3×1 mL). Surface bound radioactivity was removed by incubating twice with 0.5 mL glycine (50 mM, pH=2.8) for 5 min. Thereafter, cells were washed with PBS (1 mL) and lysed employing NaOH (0.3 M) during 10 min. Lysates and surface-bound activity were collected and measured in a gamma-counter (Perkin Elmer 2480, Wizard, Gamma Counter). The cell uptake was calculated as percent of the initially added radioactivity bound to […].
For internalisation studies androgen-sensitive human prostate adenocarcinoma cells (LNCaP) highly overexpressing PSMA were incubated with the ^68Ga-labeled compounds resulting in specific cell surface binding of all tested compounds (Table 2).

[2] = 0.5 nmol 68Ga-labeled compound i.v., PET up to 60 min p.i., time activity curves (SUV)
[3] = 68Ga-labeled compounds, 30 nM, 45 min at 37° C., LNCaP cells, specific uptake by blockage with 500 μM 2-PMPA, mean ± SD (n=3)
[4] = 68Ga-labeled compounds, LNCaP cells
[5] = 68Ga-labeled compounds, LNCaP cells, trifluoroacetic acid salt

O=C(O)CC[C@H](NC(=O)N[C@@H](CCCCNC(=O)[C@H](Cc1ccccc1I)NC(=O)[C@H]1CC[C@H](CNC(=O)CN2CCN(CC(=O)O)CCN(CC(=O)O)CCN(CC(=O)O)CC2)CC1)C(=O)O)C(=O)O [Ii, (((S)-1-carboxy-5-((S)-3-(2-iodophenyl)-2-((1r,4S)-4-((2-(4,7,10-tris(carboxymethyl)-1,4,7,10-tetraazacyclododecan-1-yl)acetamido)methyl)cyclohexane-1-carboxamido)propanamido)pentyl)carbamoyl)-L-glutamic acid trifluoroacetic acid salt]
Tumor-to-muscle ratio compared with PSMA-617 [1, 2]: increased at later time points compared to PSMA-617 | Binding profile and biodistribution/pharmacokinetics compared with PSMA-617 [1]: comparable or superior to values observed for PSMA-617 | Specifically cell surface bound (PSMA(+) LNCaP cells; [3]): 1.1 ± 0.4 % IA/10^5 cells | Specifically internalised (PSMA(+) LNCaP cells; [3]): 0.7 ± 0.1 % IA/10^5 cells | Internalisation compared with PSMA-617 (in words) (PSMA(+) LNCaP cells; [4]): comparable to PSMA-617

O=C(O)CC[C@H](NC(=O)N[C@@H](CCCCNC(=O)[C@H](Cc1ccc2ccccc2c1)NC(=O)[C@H](Cc1ccc(I)cc1)NC(=O)CN1CCN(CC(=O)O)CCN(CC(=O)O)CCN(CC(=O)O)CC1)C(=O)O)C(=O)O [In, (((S)-1-carboxy-5-((S)-2-((S)-3-(4-iodophenyl)-2-(2-(4,7,10-tris(carboxymethyl)-1,4,7,10-tetraazacyclododecan-1-yl)acetamido)propanamido)-3-(naphthalen-2-yl)propanamido)pentyl)carbamoyl)-L-glutamic acid trifluoroacetic acid salt]
Specifically cell surface bound (PSMA(+) LNCaP cells; [3]): 0.4 ± 0.1 % IA/10^5 cells | Specifically internalised (PSMA(+) LNCaP cells; [3]): 0.2 ± 0.1 % IA/10^5 cells | Internalisation compared with PSMA-617 (in words) (PSMA(+) LNCaP cells; [4]): reduced internalised fraction

O=C(O)CC[C@H](NC(=O)N[C@@H](CCCCNC(=O)[C@H](Cc1ccc2ccccc2c1)NC(=O)[C@H]1CC[C@H](CNC(=O)CN2CCN(CC(=O)O)CCN(CC(=O)O)CCN(CC(=O)O)CC2)CC1)C(=O)O)C(=O)O [PSMA-617, reference compound]
Specifically internalised (PSMA(+) LNCaP cells; [3]): 0.6 ± 0.2 % IA/10^5 cells | Specifically cell surface bound (PSMA(+) LNCaP cells; 0.75 h, 0.03 µM): 1.5 ± 0.4 % IA/10^5 cells

O=C(O)CC[C@H](NC(=O)N[C@@H](CCCCNC(=O)[C@H](Cc1ccc(I)cc1)NC(=O)[C@H]1CC[C@H](CNC(=O)CN2CCN(CC(=O)O)CCN(CC(=O)O)CCN(CC(=O)O)CC2)CC1)C(=O)O)C(=O)O [Ik, (((S)-1-carboxy-5-((S)-3-(4-iodophenyl)-2-((1r,4S)-4-((2-(4,7,10-tris(carboxymethyl)-1,4,7,10-tetraazacyclododecan-1-yl)acetamido)methyl)cyclohexane-1-carboxamido)propanamido)pentyl)carbamoyl)-L-glutamic acid trifluoroacetic acid salt]
Tumor accumulation (reversibility) [1, 2]: more reversible tumor accumulation | Specifically cell surface bound (PSMA(+) LNCaP cells; [3]): 0.7 ± 0.1 % IA/10^5 cells | Specifically internalised (PSMA(+) LNCaP cells; [3]): 0.6 ± 0.3 % IA/10^5 cells | Internalisation compared with PSMA-617 (in words) (PSMA(+) LNCaP cells; [4]): comparable to PSMA-617

O=C(O)CC[C@H](NC(=O)N[C@@H](CCCCNC(=O)[C@@H](Cc1c[nH]c2ccc(I)cc12)NC(=O)[C@H]1CC[C@H](CNC(=O)CN2CCN(CC(=O)O)CCN(CC(=O)O)CCN(CC(=O)O)CC2)CC1)C(=O)O)C(=O)O [Il, (((S)-1-carboxy-5-((R)-3-(5-iodo-1H-indol-3-yl)-2-((1r,4R)-4-((2-(4,7,10-tris(carboxymethyl)-1,4,7,10-tetraazacyclododecan-1-yl)acetamido)methyl)cyclohexane-1-carboxamido)propanamido)pentyl)carbamoyl)-L-glutamic acid trifluoroacetic acid salt]
Specifically cell surface bound (PSMA(+) LNCaP cells; [3]): 1.6 ± 0.4 % IA/10^5 cells | Specifically internalised (PSMA(+) LNCaP cells; [3]): 0.6 ± 0.2 % IA/10^5 cells | Internalisation compared with PSMA-617 (in words) (PSMA(+) LNCaP cells; [4]): comparable to PSMA-617

O=C(O)CC[C@H](NC(=O)N[C@@H](CCCCNC(=O)[C@H](Cc1cccc(I)c1)NC(=O)[C@H]1CC[C@H](CNC(=O)CN2CCN(CC(=O)O)CCN(CC(=O)O)CCN(CC(=O)O)CC2)CC1)C(=O)O)C(=O)O [Ij, (((S)-1-carboxy-5-((S)-3-(3-iodophenyl)-2-((1r,4S)-4-((2-(4,7,10-tris(carboxymethyl)-1,4,7,10-tetraazacyclododecan-1-yl)acetamido)methyl)cyclohexane-1-carboxamido)propanamido)pentyl)carbamoyl)-L-glutamic acid trifluoroacetic acid salt]
Specifically cell surface bound (PSMA(+) LNCaP cells; [3]): 2.3 ± 0.2 % IA/10^5 cells | Specifically internalised (PSMA(+) LNCaP cells; [3]): 0.8 ± 0.3 % IA/10^5 cells | Internalisation compared with PSMA-617 (in words) (PSMA(+) LNCaP cells; [5]): higher than or comparable to PSMA-617; also recorded: comparable to PSMA-617

O=C(O)CC[C@H](NC(=O)N[C@@H](CCCCNC(=O)[C@H](Cc1ccc2ccccc2c1)NC(=O)[C@H]1CC[C@H](CNC(=O)[C@H](Cc2ccc(I)cc2)NC(=O)CN2CCN(CC(=O)O)CCN(CC(=O)O)CCN(CC(=O)O)CC2)CC1)C(=O)O)C(=O)O [Im, (((S)-1-carboxy-5-((S)-2-((1S,4S)-4-(((S)-3-(4-iodophenyl)-2-(2-(4,7,10-tris(carboxymethyl)-1,4,7,10-tetraazacyclododecan-1-yl)acetamido)propanamido)methyl)cyclohexanecarboxamido)-3-(naphthalen-2-yl)propanamido)pentyl)carbamoyl)-L-glutamic acid trifluoroacetic acid salt]
Tumor uptake compared with PSMA-617 [1, 2]: higher tumor uptake compared to PSMA-617 | Binding profile and biodistribution/pharmacokinetics compared with PSMA-617 [1]: comparable or superior to values observed for PSMA-617 | Specifically cell surface bound (PSMA(+) LNCaP cells; [3]): 1.6 ± 0.5 % IA/10^5 cells | Specifically internalised (PSMA(+) LNCaP cells; [3]): 0.9 ± 0.5 % IA/10^5 cells | Internalisation compared with PSMA-617 (in words) (PSMA(+) LNCaP cells; [5]): higher than or comparable to PSMA-617; also recorded: comparable to PSMA-617
